The values below come from ChEMBL document CHEMBL1152064, “Nucleosides and nucleotides. 128. (2S)-2-deoxy-2-C-methyl-5-iodouridine (SMIU) as a novel potent anti-herpes virus agent” (Bioorg Med Chem Lett, 1994).

Values after ≈ are worked out from the molar mass of the structure shown.

Test [1] has as its system NC-37. In words: Cytotoxic concentration required to inhibit NC-37 cells by 50%. It counts as functional. The conditions noted are these: Homo sapiens.
For test [2], the system named is NC-37. In words: Concentration required to reduce HSV-1 (KOS strain) induced cytopathogenicity in NC-37 cells. It counts as functional, cell-based. Particulars: Homo sapiens. (Damage to the host cells serves as the signal in cytopathic effect assays.)

`C[C@H]1[C@H](O)[C@@H](CO)O[C@H]1n1cc(Cl)c(N)nc1=O`: in test [1], the CC50 (as a rule, the concentration giving 50% cytotoxicity) was more than 100 µg/mL. Also, the concentration for a half-maximal effect (EC50) (as a rule, the concentration giving half of the maximal effect) in test [2] is more than 100 µg/mL.

`C[C@H]1[C@H](O)[C@@H](CO)O[C@H]1n1cc(F)c(N)nc1=O` had a half-maximal cytotoxic concentration (CC50) in test [1] of 0.22 µg/mL (≈ 0.849 µM). This molecule also yielded an EC50 in test [2] of 0.22 µg/mL (≈ 0.849 µM).

In turn, `C[C@H]1[C@H](O)[C@@H](CO)O[C@H]1n1cc(I)c(=O)[nH]c1=O` showed a CC50 in test [1] of more than 100 µg/mL. The molecule further had an EC50 in test [2] of 0.14 µg/mL (≈ 0.38 µM).

`C[C@H]1[C@H](O)[C@@H](CO)O[C@H]1n1cc(Br)c(N)nc1=O` displayed a CC50 in test [1] of more than 100 µg/mL. The same molecule registered an EC50 in test [2] of more than 100 µg/mL.

As for `C[C@H]1[C@H](O)[C@@H](CO)O[C@H]1n1cc(F)c(=O)[nH]c1=O`, the CC50 in test [1] is more than 100 µg/mL. The EC50 in test [2] was more than 100 µg/mL.

With `C[C@H]1[C@H](O)[C@@H](CO)O[C@H]1n1cc(I)c(N)nc1=O`, the CC50 in test [1] is more than 100 µg/mL. In test [2], this molecule had an EC50 of 4.8 µg/mL (≈ 13.1 µM).

Molecule `C[C@H]1[C@H](O)[C@@H](CO)O[C@H]1n1cc(Br)c(=O)[nH]c1=O` showed a CC50 in test [1] of more than 100 µg/mL. Also, the half-maximal effective concentration (EC50) in test [2] turned out to be 11 µg/mL (≈ 34.3 µM).

Consider `C[C@H]1[C@H](O)[C@@H](CO)O[C@H]1n1cc(Cl)c(=O)[nH]c1=O`, for which the CC50 in test [1] is more than 100 µg/mL. The molecule also gave an EC50 in test [2] of more than 100 µg/mL.

`Nc1nc2c(ncn2COCCO)c(=O)[nH]1` [ACYCLOVIR] yielded a CC50 in test [1] of more than 100 µg/mL. Also, in test [2], the EC50 was determined as 0.17 µg/mL (≈ 0.755 µM).

In test [1], `Nc1nc(=O)n([C@@H]2O[C@H](CO)[C@@H](O)[C@@H]2F)cc1I` [FIACITABINE] yielded a CC50 of 63 µg/mL (≈ 170 µM). In addition, the EC50 in test [2] turned out to be 0.1 µg/mL (≈ 0.269 µM).

`O=c1[nH]c(=O)n([C@@H]2O[C@H](CO)[C@@H](O)[C@@H]2F)cc1I` [FIALURIDINE] gave a CC50 in test [1] of 6.7 µg/mL (≈ 18 µM). In test [2], the EC50 amounted to 0.06 µg/mL (≈ 0.161 µM).

The molecule `O=c1[nH]c(=O)n([C@H]2C[C@H](O)[C@@H](CO)O2)cc1I` [IDOXURIDINE] gave a CC50 in test [1] of 80 µg/mL (≈ 226 µM). Further, the EC50 in test [2] is more than 80 µg/mL.
